The results in this text go back to patent US8496952B2, “Antimicrobial compositions comprising silver chloride and benzoisothiazoline” (Clariant Finance (BVI) Limited, priority 2007, dated 2013).

The nature of data set [1]: Color stability of Ag/BIT compared with AgCl, AgNO3, JMAC. In kind it is physicochemical.
Data set [2] has as its system Staphylococcus aureus DSM 799, Pseudomonas aeruginosa DSM 1128, E-Coli DSM 682, Enterobacter aerogenes NCIMB 10102. Description: Kill-kinetic measurement according to the Clariant method, supported silver/BIT (Example 2). In kind it is cell-based. Conditions: summary of Table 2. Here is the method: (Kill-kinetic measurement according to the Clariant method) of silver-BIT mixtures in comparison to the individual biocides silver and BIT
(§1) • 900 ml of phosphate buffer pH 7.0: • 600 ml of H2O dest. +117 ml of (b)+183 ml of (a)
(§2) The bacteria are cultivated on a caso agar.
After the bacteria have spent 24 hours on the culture medium (caso agar), 10 ml of the 0.1 M phosphate buffer are added thereto and mixed for 20 seconds using a vortex mixer; 9 ml of the 0.1 M buffer solution are added to 1 ml of this solution; in turn, 1 ml of this solution are taken and 9 ml of 0.1 M phosphate buffer are added. The resulting solution is the inoculum with which the test series is carried out.
The germ count was determined in each case at the start (0 h), after 0.5 h, 1 h, 2 h; 3 h; 5 h; 7 h and 24 h in accordance with the TVC method European Pharmacopoeia 2.6.12.

For data set [3] the test system is unchanged. Description: Kill-kinetic measurement according to the Clariant method, Ag salt/BIT (Example 1). The format is cell-based. Conditions: summary of Table 1. How it is done:
(kill-kinetic measurement according to the Clariant method) of the composition Ag/BIT in comparison to the individual biocides AgCl, AgNO3, composition 1 and composition 5
as §1, §2
Description of the kill-kinetic measurement according to the Clariant method After the bacteria have spent 24 hours on the culture medium (caso agar), 10 ml of the 0.1 M phosphate buffer are added thereto and mixed for 20 seconds using a vortex mixer; 9 ml of the 0.1 M buffer solution are added to 1 ml of this solution; in turn, 1 ml of this solution are taken and 9 ml of 0.1 M phosphate buffer are added. The resulting solution is the inoculum with which the test series is carried out.
The concentration data given for the above samples refer in each case to elemental silver and pure BIT (i.e. not in salt form). Thus, for example in sample 4, AgNO3 and BIT were mixed together such that the mixture comprised 26.7 ppm of Ag, calculated as element, and 53.3 ppm of BIT, calculated as pure substance.
The germ count was determined in each case at the start (0 h), after 0.5 h, 1 h; 2 h; 3 h; 5 h; 7 h and 24 h in accordance with the TVC method European Pharmacopoeia 2.6.12.

With `[Cl][Ag]` [AgCl], the Appearance after result in data set [1] (5 min) is reported as “gray”; in data set [1] (30 min) it was “dark gray”; in data set [1] (1 h), “dark gray”; in data set [1] (2 h) it was “dark gray”; in data set [1] (6 h), “dark gray”; in data set [1] (24 h), “dark gray”. In addition, the Appearance after result in data set [1] (immediately) was “white”.

On to `O=[N+]([O-])[O-].[Ag+]` [AgNO3 solution, AgNO3], for which the Appearance after entry in data set [1] (5 min), in data set [1] (30 min), in data set [1] (1 h), in data set [1] (2 h), in data set [1] (6 h) and in data set [1] (24 h) was “dark gray” in each case. For the same compound, the Appearance after result in data set [1] (immediately) was “gray”.

For `O=c1[nH]sc2ccccc12` [Benzoisothiazoline, 1,2-benzoisothiazolin-3-one], in data set [2], the “antimicrobial effect / efficiency (in words)” value is reported as “only develops its antimicrobial effect after many hours”.

On to AgCl [Sample 9], for which the “antimicrobial effect / efficiency (in words)” value in data set [3] was “moderate”.

Regarding AgNO3 [Sample 8], in data set [3], the “antimicrobial effect / efficiency (in words)” value is recorded as “moderate”.

silver ions: in data set [2], the “antimicrobial effect / efficiency (in words)” value was “moderate”.
